Experimental data from article PMC11204507, “Mechanistic Insights into the Neurotoxicity of 2,5-Dimethoxyphenethylamines (2C) and Corresponding N-(2-methoxybenzyl)phenethylamine (NBOMe) Drugs” (Journal of Xenobiotics, 2024).
Like-named read-outs stand apart in the source and are kept apart here.

Assays:
[1] = system: dopaminergic CATH.a cells and 5-HT-containing B65 cells; parameters: method as in doi:10.1007/s11419-020-00527-w; settings: 24 h exposure; read-out: EC50, LDH assay; cited from earlier work
[2] = system: differentiated SH-SY5Y cells; assay: Intracellular ROS/RNS levels, DCFH-DA probe; type: cell-based, human; settings: positive control, 24 h
Description: Reactive species play important roles in cell signaling and immune response. However, when their levels are excessive, they can cause oxidative stress and damage the cells. The intracellular reactive oxygen species (ROS) and reactive nitrogen species (RNS) levels were measured using the cell-permeable DCFH-DA probe. Inside the cells, DCFH-DA is cleaved by cellular esterases originating DCFH, which is oxidized by ROS/RNS, resulting in the fluorescent 2′,7′-dichlorofluorescein (DCF).
Therefore, the SH-SY5Y cells were seeded onto 96-well plates (25,000 cells/cm^2) following the previously described seeding and differentiation protocol. […] Tert-butyl hyoperoxide (t-BHP, 100 µM, 24 h) was used as a positive control.
At the end of the incubation period, the DCF fluorescence was measured at an excitation wavelength of 485 nm and an emission wavelength of […] in a multi-well plate reader (PowerWaveX, BioTek Instruments, Winooski, VT, USA). The detection of ROS/RNS was assessed by the percent of probe oxidation relative to the control cells (0 µM), and a minimum of 4 independent experiments were conducted in triplicate.

serotonergic B65 cells = system: serotonergic B65 cells; parameters: method as in doi:10.1007/s11419-020-00527-w; settings: cited from earlier work
TK6 cells = system: TK6 cells; parameters: method as in PMID 33348640; settings: 1 h, cited from earlier work
MAO-A and MAO-B = settings: rat model; cited from earlier work
[3] = system: differentiated SH-SY5Y cells; parameters: method as in PMID 37631071, PMID 25900438; settings: same in vitro model; cited from earlier work
[4] = system: differentiated SH-SY5Y cells; parameters: method as in PMID 37631071, PMID 25900438; settings: same in vitro model; cited from earlier work; remark: listed apart in the source
[5] = system: differentiated SH-SY5Y cells; settings: same experimental conditions; cited from earlier work

Compound | EC50 [1] [mM] | deamination by MAO-A and MAO-B (MAO-A and MAO-B) | tGSH content [3] | increase in ROS levels (TK6 cells; 12.5 µM) | ROS production [4] | further results
CNC(C)Cc1ccc2c(c1)OCO2 (stereo not drawn) [MDMA, 3,4-methylenedioxymethamphetamine] | 1.5 to 3 | – | – | – | – | –
CC(C)(C)OO [t-BHP, tert-butyl hydroperoxide] | – | – | – | – | – | activity at 100 µM ([2]; Homo sapiens, SH-SY5Y, control 100.0%): 188%; increase of ROS levels ([2]; 100 µM): approximately 90%
COc1cc(CCN)c(OC)cc1I [2C-I] | – | both isoenzymes can catalyze the deamination | – | – | – | mitochondrial production of ROS (serotonergic B65 cells): increase in the mitochondrial production of ROS; increase in ROS levels (TK6 cells; 35 µM): two-fold
CN[C@@H](C)Cc1ccccc1 [methamphetamine] | 1.5 to 3 | – | – | – | – | –
COc1cc(CCNCc2ccccc2OC)c(OC)cc1Br [25B-NBOMe] | – | – | significant decrease in the tGSH content | two-fold | no ROS production | –
COc1cc(CCN)c(OC)cc1Br [2C-B] | – | both isoenzymes can catalyze the deamination | significant decrease in the tGSH content | two-fold | no ROS production | drug-induced cytotoxicity upon MAO inhibition [5]: significant increase in the drug-induced cytotoxicity was observed upon MAO inhibition
